Data published in patent US20080255139A1, “Use Of 4- (4-Methylpiperazin-1-Ylmethyl)-N-[4-Methyl-3-(4-(Pyridin-3-Yl)Pyrimidin-2-Ylamino)Phenyl]-Benzamide to Inhibit the Tyrosine Kinase Receptor C-Fms” (priority 2004, published 2008).
Entries after “also recorded” stand apart in the source; their conditions may differ. Like-named read-outs stand apart in the source and are kept apart here.

Tests used:
[1] = test system: FDC-cfms cells (M-CSF dependent, c-fms); assay: cells; conditions: 12 h, read-out: inhibition of cell growth, M-CSF sole stimulation
FDC-cfms cells = conditions: for Cell count, IL-3, 12 H: 0 μM control 125433; for Cell count, IL-3, 24 H: 0 μM control 257726; for Cell count, IL-3, 48 H: 0 μM control 1123171
[2] = test system: M-CSF production by the cultured monocytes; assay: M-CSF ELISA on GM-CSF stimulated monocyte cultures; type: cell-based, human
Method: M-CSF ELISA. Monocytes are isolated from buffy coats from normal donors, as previously described, e.g. in Dewar A et al., 2003, Leukemia 17:1713-21. Monocyte cultures (1×10^5/mL) are established in 24 well plates in serum deprived medium (SDM; IMDM/1% BSA supplemented with 2 mM L-glutamine, 200 μg/mL transferrin, 10 μg/mL insulin (Actrapid®, Novo Nordisk), 10^−4 M β-mercaptoethanol, 50 μg/mL low density lipoproteins (Sigma)) and stimulated with 20 ng/mL GM-CSF. Supernatants are harvested at 24 h intervals for 5 days, and analysed for M-CSF using an R&D Systems DuoSete ELISA development system according to the manufacturers instructions.

[3] = test system: FDC-cfms cells (M-CSF dependent, c-fms); conditions: for Cell count, M-CSF, 12 H: 0 μM control 132174; for Cell count, M-CSF, 24 H: 0 μM control 310859; for Cell count, M-CSF, 48 H: 0 μM control 1453642

## Cc1ccc(NC(=O)c2ccc(CN3CCN(C)CC3)cc2)cc1Nc1nccc(-c2cccnc2)n1 [Compound I, 4-(4-methylpiperazin-1-ylmethyl)-N-[4-methyl-3-(4-(pyridin-3-yl)pyrimidin-2-ylamino)phenyl]-benzamide]
[1]
  inhibition at 5 µM: 50%
FDC-cfms cells; 12 or 24 h, 0.5-5.0 μM Compound I
  effect on cell growth, IL-3 stimulated control cultures: no Compound I-specific effects on cell growth; also recorded: No effect
FDC-cfms cells; Compound I 0.5 μM
  Cell count, IL-3, 12 H: 131724 cells/mL
  Cell count, IL-3, 24 H: 281975 cells/mL
  Cell count, IL-3, 48 H: 1107666 cells/mL
FDC-cfms cells; Compound I 1 μM
  Cell count, IL-3, 12 H: 126472 cells/mL
  Cell count, IL-3, 24 H: 264007 cells/mL
  Cell count, IL-3, 48 H: 1068150 cells/mL
FDC-cfms cells; Compound I 5 μM
  Cell count, IL-3, 12 H: 106917 cells/mL
  Cell count, IL-3, 24 H: 197435 cells/mL
  Cell count, IL-3, 48 H: 682771 cells/mL
FDC-cfms cells; Compound I […]
  Cell count, IL-3, 12 H: 131857 cells/mL
  Cell count, IL-3, 24 H: 247613 cells/mL
  Cell count, IL-3, 48 H: 940233 cells/mL
[2]; 1.0 μM Compound I, GM-CSF 20 ng/mL
  effect on M-CSF production by the cultured monocytes: no effect
[2]; 5.0 μM, GM-CSF stimulated monocytes
  decrease in M-CSF production: 30%
[3]; 24 h, 5.0 μM Compound I
  cell counts, M-CSF: lower than seeded values
[3]; Compound I 0.5 μM
  Cell count, M-CSF, 12 H: 133296 cells/mL
  Cell count, M-CSF, 24 H: 339185 cells/mL
  Cell count, M-CSF, 48 H: 1577777 cells/mL
[3]; Compound I 1 μM
  Cell count, M-CSF, 12 H: 130010 cells/mL
  Cell count, M-CSF, 24 H: 311035 cells/mL
  Cell count, M-CSF, 48 H: 1362802 cells/mL
[3]; Compound I 5 μM
  Cell count, M-CSF, 12 H: 68324 cells/mL
  Cell count, M-CSF, 24 H: 20830 cells/mL
  Cell count, M-CSF, 48 H: 20149 cells/mL
[3]; Compound I […]
  Cell count, M-CSF, 12 H: 117025 cells/mL
  Cell count, M-CSF, 24 H: 174818 cells/mL
  Cell count, M-CSF, 48 H: 295134 cells/mL
